Structures are written as SMILES. Calls of active or inactive are those of the source.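 How the source made its calls: active means AC50 no more than ten times the top concentration tested, that is within one log above it; inconclusive means flat curve fit with activity between 30% and 70%, or invalid poor fit; inactive means AC50 beyond ten times the top tested dose.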

The term AC50 denotes the midpoint of the concentration-response curve, whichever way the signal moves.

The test system of this assay is S. cerevisiae Mot1-301 ts growth rescue, BacTiter-Glo ATP luminescence. The experiment in a line: restored Mot1-301 yeast growth at 38.5C – whole organism, S. cerevisiae, Mot1-301 ts mutant, luminescence, dose retest, SUMOylation pathway inhibitor project, confirmation (AID 463204).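 Further: growth at restrictive 38.5 degrees C of Mot1-301 OY566 strain; actives raise luminescence by restoring growth of the ts mutant at high temperature.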
`C=C(Cl)COC(=O)C1C2C=CC(C2)C1C(=O)O` (centres undefined): the AC50 was > 42 µM (inactive). The result for `COc1cc2cc(C)c3nnc(SCC(=O)Nc4cc(C)on4)n3c2cc1OC` reads > 42 µM (inactive); that for `CS(=O)(=O)N(CC(=O)NCCSCc1ccccc1)c1ccc2c(c1)OCO2`, > 42 µM (inactive). For `COc1ccccc1CSc1ncc(-c2ccc([N+](=O)[O-])cc2)[nH]1`, the AC50 is > 42 µM (inactive). The value for `COc1ccc(NC(=O)C2CCN(c3cc(C)nc(-c4ccccc4)n3)CC2)cc1` was > 42 µM (inactive); that for `CN1C(C(=O)Nc2ccccn2)=C(O)c2sccc2S1(=O)=O` was > 42 µM (inactive). Turning to `COc1ccc2nc(SCC(=O)N(C)CC(=O)Nc3ccc(F)cc3)[nH]c2c1`, the AC50 was > 42 µM (inactive). Take `COCCn1c(=O)[nH]c(=O)c2cc(C(=O)c3cc(Cl)ccc3O)cnc21`: the AC50 is > 42 µM (inactive).

For the compound `Cc1ccc(F)cc1NS(=O)(=O)c1ccc(Cl)s1`, the concentration at half-maximal activity (AC50) is 22.2 µM. The value for `O=C1C2CC=C(Cl)CC2C(=O)N1c1ncn[nH]1` (centres undefined) was > 42 µM (inactive); that for `Cc1ccccc1Nc1c([N+](=O)[O-])ccc2c1=NC1(CCCCC1)N=2` was > 42 µM (inactive); that for `O=C(O)c1ccc(COc2c(F)c(F)cc(F)c2F)cc1` was > 42 µM (inactive). In the case of `Cc1ccc(Sc2cnccc2C#N)cc1`, the AC50 was > 42 µM (inactive). The value for `COCc1[nH][nH]c(=O)c1C=Nc1ccc(OC(F)(F)F)cc1` was > 42 µM (inactive); that for `O=C(N/N=C/c1ccccn1)NC12CC3CC(CC(C3)C1)C2` was > 42 µM (inactive); that for `COCCNCc1ccccc1` was > 42 µM (inactive). Turning to `CCOC(=O)c1ccc(NC(=O)CC2Sc3ncnn3C2=O)cc1` (centres undefined), the concentration at half-maximal activity (AC50) was 6.96 µM. In the case of `O=c1cc(COc2ncnc3ccccc23)nc2sccn12`, the AC50 is > 42 µM (inactive). On to `O=C1NC(=O)N(Cc2ccccc2)C1=O`, for which the AC50 was > 42 µM (inactive). Regarding `CCCOc1ccccc1C1NC(=O)NC(C)=C1C(=O)OCCOCC` (centres undefined), the AC50 is > 42 µM (inactive). The result for `COc1ccc(C(=O)Sc2ccc(Cl)cc2)cc1OC` reads > 42 µM (inactive); that for `COc1cccc(NC(=S)NC(=O)c2cncc(Br)c2)c1`, > 42 µM (inactive); that for `CCc1nc2ccccc2c(C(=O)OC2CCCCC2=O)c1C` (centres undefined), > 42 µM (inactive). Consider `CCCN1CCN(CCCNC(=O)CCn2nc(-c3ccccc3)ccc2=O)CC1`, for which the AC50 was > 42 µM (inactive). As to `Cc1ccc(SCCNC(=O)CN2C(=O)c3ccccc3S2(=O)=O)cc1`, the AC50 is > 42 µM (inactive). The result for `Cc1cc(C(F)(F)F)nc(SCC(=O)Nc2cc(C)on2)n1` reads > 42 µM (inactive). With `COCCNC(=O)C(c1ccc(C)cc1)N(C(=O)CCC(=O)Nc1ccccn1)c1cccc(C)c1` (centres undefined), the AC50 is > 42 µM (inactive). The value for `C[C@@]12C(=O)Nc3cc(F)ccc3C(=O)N1[C@H]1c3ccccc3OC[C@@H]1[C@@H]2c1ccccc1` was 5.7 µM. The value for `COC(=O)c1cc2c(s1)-c1ccc(OC)cc1CC2` was > 42 µM (inactive); that for `O=C(CN(CC1CCCO1)C(=O)CNS(=O)(=O)c1ccc(F)cc1)NCc1ccccc1` (centres undefined) was > 42 µM (inactive); that for `CC(OC(=O)c1cc(S(=O)(=O)N2CCOCC2)ccc1F)C(=O)NCc1ccc2c(c1)OCO2` (centres undefined) was > 42 µM (inactive). For the compound `CC1CC(N(C(=O)c2ccccc2Cl)c2ccccc2)c2ccccc2N1` (centres undefined), the AC50 was > 42 µM (inactive). For `NS(=O)(=O)c1cccc(NC(=O)c2cccnc2Oc2ccccc2)c1`, the AC50 was > 42 µM (inactive). In the case of `CN(C)C(CNC(=O)CNC(=O)c1ccc(Br)cc1)c1ccccc1` (centres undefined), the AC50 is > 42 µM (inactive). The value for `C/C(CC(=O)NC1CCCCC1)=N\NC(=O)Cc1ccc(-c2ccccc2)cc1` was > 42 µM (inactive). The value for `O=C(c1ccco1)N1CCN(CC(=O)N2c3ccccc3CCc3ccccc32)CC1` was > 42 µM (inactive). The result for `CCC1(c2ccccc2)NC(=O)N(CC(=O)N(C)CC(=O)Nc2ccc(F)c(F)c2F)C1=O` (centres undefined) reads > 42 µM (inactive). For `O=[N+]([O-])c1ccc(N/N=C/c2cccc(O)c2)cc1`, the AC50 was 29.4 µM. As to `O=C(CP(=O)(c1ccccc1)c1ccccc1)N1CCOCC1`, the AC50 is > 42 µM (inactive). The value for `O=C(Nc1nccs1)c1ccc(S(=O)(=O)c2ccccc2)cc1` was > 42 µM (inactive); that for `Cc1cc2c(cc1C)-c1nnc(-c3ccc4ccccc4n3)n1C(C)(C)C2` was > 42 µM (inactive).

With `Cc1ccccc1P(=O)(CO)c1ccccc1C`, the AC50 was > 42 µM (inactive). As to `Cc1nc(N/N=C\c2ccc3c(c2)OCO3)sc1C`, the AC50 was 33.5 µM. Take `CC(C)C(OC(=O)CN1C(=O)COc2ccccc21)C(=O)NC1CCCC1` (centres undefined): the AC50 is > 42 µM (inactive). The value for `Cc1cnc(C(=O)OC(C(=O)c2c[nH]c3ccccc23)c2ccccc2)cn1` (centres undefined) was 29.4 µM; that for `CCOC(=O)c1ccc(NC(=O)NCc2ccncc2)cc1` was > 42 µM (inactive); that for `Cc1cc(=O)oc(C)c1C(=O)Nc1ccc(Cl)cn1` was > 42 µM (inactive).

Consider `Clc1cc(Br)ccc1OCCOCCN1CCOCC1`, for which the AC50 is > 42 µM (inactive). On to `O=C(CSc1ncccc1C(=O)O)NC1CCCCC1`, for which the AC50 is > 42 µM (inactive). The result for `Cc1cc(C(=O)NN)n[nH]1` reads > 42 µM (inactive); that for `O=[N+]([O-])c1cccc(-c2nc3ccc([N+](=O)[O-])cc3[nH]2)c1`, > 42 µM (inactive). The result for `NS(=O)(=O)c1ccc(CCNC(=O)c2ccc([N+](=O)[O-])s2)cc1` reads > 42 µM (inactive).

With `Cn1c(NCc2ccco2)nc2c1c(=O)n(Cc1ccc(Cl)cc1)c(=O)n2C`, the AC50 was > 42 µM (inactive). The result for `Cc1cc(C)c2nc(-c3cccnc3)cc(C(=O)Nc3ccc(S(=O)(=O)Nc4onc(C)c4C)cc3)c2c1` reads > 42 µM (inactive). The value for `O=C(O)CCC(=O)Nc1cccc(C(=O)Nc2ccc(Br)cc2)c1` was > 42 µM (inactive); that for `CCCCC(O)(c1ccc(F)cc1)C(CN1CCOCC1)c1ccc(Cl)cc1` (centres undefined) was 5.49 µM; that for `COc1cc(CNCCN2CCOCC2)ccc1OCc1ccccc1Cl` was > 42 µM (inactive). With `Cc1ccc(C(=O)NC(Cc2c[nH]c3ccccc23)C(=O)O)o1` (centres undefined), the AC50 was > 42 µM (inactive). Take `COc1ccc(C(=O)N/C(=C\c2cc(OC)c(OC)cc2[N+](=O)[O-])C(=O)NCCO)cc1`: the AC50 was > 42 µM (inactive). The value for `COc1ccc(NC2=C(C)C(=O)CC2)cc1` was > 42 µM (inactive); that for `C[C@@]12C(=O)Nc3ccc(F)cc3C(=O)N1[C@H]1c3ccccc3OC[C@@H]1[C@@H]2c1ccccc1` was 3.24 µM; that for `CCN(C(=O)CCS(=O)(=O)c1ccc2c(c1)oc(=O)n2C)c1ccc(OC)cc1` was > 42 µM (inactive). In the case of `CN(Cc1ccccc1)c1ccc(S(=O)(=O)N2CCC(C(=O)O)CC2)cc1[N+](=O)[O-]`, the AC50 was > 42 µM (inactive). The result for `COc1ccc(NS(=O)(=O)c2ccc(OCC(=O)N3CCOCC3)cc2)cc1Cl` reads > 42 µM (inactive); that for `CN(C)c1ccc(NS(=O)(=O)c2cccc(Cl)c2)cc1`, > 42 µM (inactive); that for `COc1cc(CN2CCNC(=O)C2CC(=O)NCCc2ncccc2C)cc(OC)c1` (centres undefined), > 42 µM (inactive). In the case of `Cc1ccc(NC(=O)C(=O)NCC2CCCN2S(=O)(=O)c2cccs2)cc1` (centres undefined), the AC50 was > 42 µM (inactive). The value for `Cc1ccc(-c2csc(NC(=O)CSc3nc(C)cs3)n2)cc1` was > 42 µM (inactive); that for `CC12CCC(=O)N1C(C(=O)Nc1ccccc1F)CS2` (centres undefined) was > 42 µM (inactive); that for `CCCCCC(=O)NNC1=NCC(Cc2cccc(Cl)c2)S1` (centres undefined) was > 42 µM (inactive). The value for `CCOc1ccc(NS(=O)(=O)c2ccc(C(=O)NCc3cccnc3)cc2)cc1` was > 42 µM (inactive); that for `S=C(NCCc1ccccc1)Nc1ccccc1Cl` was > 42 µM (inactive).

Regarding `COC(=O)c1ccc2[nH]c(C(C)(C)O)c(C)c2c1`, the AC50 is > 42 µM (inactive). Consider `Cn1c(O)c(C(c2ccccn2)c2c(O)n(C)c(=S)n(C)c2=O)c(=O)n(C)c1=S`, for which the AC50 is > 42 µM (inactive).

Regarding `CC(C)COc1ccc(C(=O)Nc2ccc([N+](=O)[O-])cc2)cc1`, the AC50 was > 42 µM (inactive). The value for `N=c1n(CCCOc2ccc(Br)cc2)c2ccccc2n1CC(N)=O` was > 42 µM (inactive); that for `CS(=O)(=O)Nc1ccccc1C(=O)NCCSCc1ccccc1` was > 42 µM (inactive). The value for `O=C(O)CSc1ncnc2sc(-c3ccccc3)cc12` was > 42 µM (inactive); that for `CCCN1C(=O)c2ccc(C(=O)Nc3nccs3)cc2C1=O` was > 42 µM (inactive). With `COCC(=O)n1nc(NCc2ccc(OC)cc2)nc1NCc1ccc(OC)cc1`, the AC50 was > 42 µM (inactive). `Cc1ccc(C(=O)NC(NC(=O)c2ccc(C)cc2)C(Cl)Cl)cc1`: the AC50 was > 42 µM (inactive). As to `Cc1ccc(NS(=O)(=O)c2ccc(NC(=O)C3CCCO3)cc2)cc1` (centres undefined), the AC50 is > 42 µM (inactive). For the compound `CC1CN=C(NCc2ccccc2)S1` (centres undefined), the AC50 is > 42 µM (inactive). On to `CCN1CCCC1CN(Cc1cc2ccc(C)cc2[nH]c1=O)C(=S)Nc1ccc(OC)cc1OC` (centres undefined), for which the AC50 was > 42 µM (inactive).

Take `CCN(CC)S(=O)(=O)c1ccc(NC(=O)C(C)N(c2ccccc2)S(C)(=O)=O)cc1` (centres undefined): the AC50 was > 42 µM (inactive). Regarding `Cc1[nH]c2ccccc2c1/C=N/NC(=O)c1cccc(Br)c1`, the AC50 was > 42 µM (inactive). The result for `N#CC(CC(=O)c1ccc(F)cc1)c1ccc2c(c1)OCO2` (centres undefined) reads 40.2 µM. With `CCOc1ccc(C(=O)Nc2ccc(N3CCN(C)CC3)cc2)cc1[N+](=O)[O-]`, the AC50 is > 42 µM (inactive). As for `O=C(COC(=O)COc1ccccc1Cl)Nc1ccccc1OC(F)F`, the AC50 was > 42 µM (inactive).
